Measurements published in patent US20080214563A1, “Benzimidazole Thiophene Compounds As Plk Modulators” (priority 2005, published 2008).

Tests used:
HT29 = test: Cell-Titer Glo Cell Growth Inhibition Assay, HT29; type: cell-based; details: Homo sapiens, HT-29, CellTiter-Glo, 72 h, read-out: CTG HT29 IC50
Protocol: (§1) A549-L (human lung), BT474 (human breast), Colo 205 (human colon), H1299 (human lung), Hela (human cervix), HCT-116 (human colon), HN5 (human head and neck), HT29 (human colon), LNCap (human prostate), MCF7 (human breast), MDA-MB468 (human breast), MX-1 (human breast), RPMI 8226 (human peripheral blood), SKOV3 (human ovary) and P388 (murine leukemia) cell lines were cultured in RPMI1640 containing 10% fetal bovine serum at 37° C. in a 5% CO2 incubator. Cell lines were split into T75 flasks (Falcon #353136) two to three days prior to assay set up at density which yields approximately 70-80% confluency at time of harvest for assay. Cells were harvested using 0.25% trypsin with EDTA (Glibco/Invitrogen #25200-056), Cell counts were performed on cell suspensions using Trypan Blue exclusion staining, cells were then plated in 105 uL of culture media per well at the following densities in 96 well Costar #3916 black flat bottom plates: All human cell lines were plated at 500 cells/well. P388 were plated at 250 cells/well. All plates were placed at 5% CO2 37° C. overnight and then test compounds were added the following day. One plate of each cell type is treated with CellTiter-Glo (Promega #G7573) for a day 0 proliferation measurement and read as described below. The test compounds are prepared in clear U bottom polypropylene 96 well plates (Falcon #35-1190 with consecutive two fold dilutions. 9 uL of these dilutions was added into each well of the cell plates. The final concentration of DMSO in all wells is 0.15%. Cells were incubated at 37° C., 5% CO2 for 72 h. Following 72 h of incubation with compounds each plate was developed and read. CellTiter-Glo reagent was added to assay plates using a volume equivalent to the cell culture volume in the wells. Plates were shaken for approximately two minutes and incubated at room temperature for approximately 15 min and the chemiluminescent signal is read on the Victor V or Envison 2100 reader. […] Concentration of compound that inhibited 50% of cell growth (IC50) was analysis by 4 or 6 parameter fit of data using XLfit, value of no cell addition was subtracted from all samples for background.

[1] = Intravenous pharmacokinetics in CD-1 mouse; type: in vivo; details: plasma, iv bolus, male CD-1 mouse, dose 1.9-7.4 mg/kg per compound (Table 3); for clearance: read-out: Plasma CL
Protocol: Preliminary investigation of the intravenous pharmacokinetics of compounds of invention were carried out in fed conscious CD-1 mouse. Compounds were formulated as 1-10 mg/kg, 5 mL/kg, 1-2 mg/mL solution (Table 3). Twenty one male mice (n=3 mice per time point) (˜30 g) received dose solution by bolus injection in the tail vein. The formulation for iv were either 20% beta cyclodextrin in saline pH 3.5-6 or PEG400:ethanol:saline (50:15:35 v/v). Blood samples (˜0.4 mL) were collected terminally by cardiac puncture following anesthetization in a CO2 chamber at 2, 15, 30, 60 min, 2, 4, and 6 h following iv administration. Blood samples were collected into tubes containing heparin and placed on crushed ice promptly after collection. Plasma was collected by centrifugation, frozen and stored at about −80° C. prior to analysis. Blood or plasma concentrations were determined by LC/MS/MS equipped with an electrospray ion source and using calibration curves for the appropriate matrix. The lower level of quantitation (LLQ) was 10 ng/mL. Blood or plasma concentration-time data were analyzed by non-compartmental methods using the computer program WinNonlin Professional (version 4.1). Area under the blood or plasma concentration-time curve (AUC) was calculated using the linear trapezoidal rule for each incremental trapezoid up to Cmax, and the log trapezoidal rule for each trapezoid thereafter. The terminal elimination rate constant (λz) was derived from the log-linear disposition phase of the concentration-time curve using least-squares regression analysis with visual inspection of the data to determine the appropriate number of terminal data points for regression analysis.
Following iv administration, the total body clearance (CL) was estimated. CL was calculated by dividing the dose by AUC(0−t). The clearance values were assigned as follows. Low <30 mL/min/kg, moderate 30-70 mL/min/kg, high >70 mL/min/kg. The assignment was based on hepatic blood flow i.e. hepatic blood flow of 0-30% low, 30-70% moderate and 70-100% high. The hepatic blood flow in mouse is ˜100 mL/min/kg.

A549-L = test: Cell-Titer Glo Cell Growth Inhibition Assay, A549-L; type: cell-based; details: Homo sapiens, CellTiter-Glo, 72 h, read-out: CTG A549-L IC50
Protocol: as §1

Colo 205 = test: Cell-Titer Glo Cell Growth Inhibition Assay, COLO205; type: cell-based; details: Homo sapiens, CellTiter-Glo, 72 h, read-out: CTG COLO205 IC50
Protocol: as §1

SKOV3 = test: Cell-Titer Glo Cell Growth Inhibition Assay, SKOV-3; type: cell-based; details: Homo sapiens, SK-OV-3, CellTiter-Glo, 72 h, read-out: CTG SKOV-3 IC50
Protocol: as §1

P388 = test: Cell-Titer Glo Cell Growth Inhibition Assay, P388; type: cell-based, murine; details: Mus musculus, CellTiter-Glo, 72 h, read-out: CTG P388 IC50
Protocol: as §1

HCT-116 = test: Cell-Titer Glo Cell Growth Inhibition Assay, HCT116; type: cell-based; details: Homo sapiens, CellTiter-Glo, 72 h, read-out: CTG HCT116 IC50
Protocol: as §1

MX-1 [2] = test: Cell-Titer Glo Cell Growth Inhibition Assay, MX-1; type: cell-based; details: Homo sapiens, MX1, CellTiter-Glo, 72 h, read-out: CTG MX-1 IC50
Protocol: as §1

PLK1 kinase domain = target: T1, PLK1 kinase domain (Homo sapiens, UniProt P53350); test: Assay for Inhibition of PLK1 (33P SPA kinase assay); type: biochemical; details: 2 nM PLK1 kinase domain, 1 μM ATP; read-out: PLK1 pIC50 (converted)
T1 construct: made in house; host or cells: baculovirus infected T. ni cells
Protocol: All procedures were performed at 4° C. Cells were lysed in 50 mM HEPES, 200 mM NaCl, 50 mM imidazole, 5% glycerol; pH 7.5. The homogenate was centrifuged at 14K rpm in a SLA-1500 rotor for 1 h and the supernatant filtered through a 1.2 micron filter. The supernatant was loaded onto a Nickel chelating Sepharose (Amersham Pharmacia) column and washed with lysis buffer. Protein was eluted using 20%, 30% and 100% buffer B steps where buffer B is 50 mM HEPES, 200 mM NaCl, 300 mM imidazole, 5% glycerol; pH 7.5. Fractions containing PLK were determined by SDS-PAGE. Fractions containing PLK were diluted five-fold with 50 mM HEPES, 1 mM DTT, 5% glycerol; pH 7.5, then loaded on an SP Sepharose (Amersham Pharmacia) column. After washing the column with 50 mM HEPES, 1 mM DTT, 5% glycerol; pH 7.5, PLK was step eluted with 50 mM HEPES, 1 mM DTT, 500 mM NaCl; 5% glycerol; pH 7.5. PLK was concentrated using a 10 kDa molecular weight cutoff membrane and then loaded onto a Superdex 200 gel filtration (Amersham Pharmacia) column equilibrated in 25 mM HEPES, 1 mM DTT, 500 mM NaCl, 5% glycerol; pH 7.5. Fractions containing PLK were determined by SDS-PAGE. PLK was pooled, aliquoted and stored at −80° C. Samples were quality controlled using mass spectrometry, N-terminal sequencing and amino acid analysis.
B. Enzyme activity +/− inhibitors was determined as follows:
All measurements were obtained under conditions where signal production increased linearly with time and enzyme. Test compounds were added to white 384-well assay plates (0.1 μL for 10 μL and some 20 μl assays, 1 μL for some 20 μL assays) at variable known concentrations in 100% DMSO. DMSO (1-5% final, as appropriate) and EDTA (65 mM in reaction) were used as controls.
Reaction Mix (10 or 20 μL) was quickly added to each well immediately following addition of enzyme via automated liquid handlers and incubated 1-1.5 h at 22° C. The 20 μL enzymatic reactions were stopped with 50 μL of stop mix (50 mM EDTA, 4.0 mg/mL Streptavidin SPA beads in Standard Dulbecco's PBS (without Mg^2+ and Ca^2+), 50 μM ATP) per well. The 10 μL reactions were stopped with 10 μL of stop mix (50 mM EDTA, 3.0 mg/mL Streptavidin-coupled SPA Imaging Beads (“LeadSeeker”) in Standard Dulbecco's PBS (without Mg^2+ and Ca^2+), 50 μM ATP) per well. Plates were sealed with clear plastic seals, spun at 500×g for 1 min or settled overnight, and counted in Packard TopCount for 30 seconds/well (regular SPA) or imaged using a Viewlux imager (LeadSeeker SPA). Signal above background (EDTA controls) was converted to percent inhibition relative to that obtained in control (DMSO-only) wells.

A549 = test: Methylene Blue Cell Growth Inhibition Assay, A549; type: cell-based; details: Homo sapiens, 72 h, read-out: MEB A549 IC50
Protocol: (§2) Normal human foreskin fibroblasts (HFF), human colon (HCT116, RKO), lung (H460, A549) and breast (MCF7) tumor cell lines were cultured in high glucose DMEM (Life Technologies) containing 10% fetal bovine serum (FBS) at 37° C. in a humidified 5% CO2, 95% air incubator. Cells were harvested using trypsin/EDTA, counted using a haemocytometer, and plated in 100 μL of culture media per well, at the following densities, in a 96-well tissue culture plate (Falcon 3075): HFF 5,000 cells/well, HCT116 3,000 cells/well, RKO 2,500 cells/well, H460 2,500 cells/well, A549 5,000 cells/well, MCF7 4,000 cells/well. The next day, compounds were diluted in low glucose DMEM containing 100 μg/mL gentamicin, at twice the final required concentration, from 10 mM stock solutions in DMSO. 100 μL/well of these dilutions were added to the 100 μL of media currently in the assay plates. Medium containing 0.6% DMSO was added to control wells. The final concentration of DMSO in all wells was 0.3%. Cells were incubated at 37° C., 5% CO2 for 72 h. Medium was removed by aspiration. Cell biomass was estimated by staining cells with 80 μL per well methylene blue (Sigma M9140, 0.5% in 50:50 ethanol:water), and incubation at room temperature for 30-60 min. Stain was removed by aspiration and the plates rinsed by immersion in water, then air-dried. To release stain from the cells, 100 μL of solubilization solution was added (1% N-lauroyl sarcosine, Sodium salt, Sigma L5125, in PBS), and plates were shaken gently for about 30 min. Optical density at 620 nm was measured on a microplate reader. Percent inhibition of cell growth was calculated relative to vehicle treated control wells. Concentration of compound that inhibits 50% of cell growth (IC50) was interpolated using nonlinear regression (Levenberg-Marquardt) and the equation, y=Vmax*(1−(x/(K+x)))+Y2, where “K” was equal to the IC50.

H460 = test: Methylene Blue Cell Growth Inhibition Assay, H460; type: cell-based; details: Homo sapiens, NCI-H460, 72 h, read-out: MEB H460 IC50
Protocol: as §2

HCT116 = test: Methylene Blue Cell Growth Inhibition Assay, HCT116; type: cell-based; details: Homo sapiens, HCT-116, 72 h, read-out: MEB HCT116 IC50
Protocol: as §2

MX-1 [3] = test: Methylene Blue Cell Growth Inhibition Assay, MX-1; type: cell-based; details: Homo sapiens, MX1, 72 h, read-out: MEB MX-1 IC50
RKO = test: Methylene Blue Cell Growth Inhibition Assay, RKO; type: cell-based; details: Homo sapiens, 72 h, read-out: MEB RKO IC50
Protocol: as §2

[4] = test system: Normal human foreskin fibroblasts (HFF); test: Methylene Blue Cell Growth Inhibition Assay, HFF; type: cell-based; details: Fibroblast, 72 h, read-out: MEB HFF IC50
Protocol: as §2

T1 sequence (P53350 21-346): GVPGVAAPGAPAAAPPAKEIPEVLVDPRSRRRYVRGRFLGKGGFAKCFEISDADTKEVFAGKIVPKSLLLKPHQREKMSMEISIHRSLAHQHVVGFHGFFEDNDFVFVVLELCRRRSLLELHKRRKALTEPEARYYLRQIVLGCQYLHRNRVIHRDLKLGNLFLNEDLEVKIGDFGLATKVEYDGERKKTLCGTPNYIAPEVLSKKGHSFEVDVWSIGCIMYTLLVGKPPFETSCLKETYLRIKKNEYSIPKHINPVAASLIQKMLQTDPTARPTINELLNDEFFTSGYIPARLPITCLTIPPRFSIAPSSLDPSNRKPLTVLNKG

IC50 (HT29) [nM] | AUC(0-t) [1] [ng·h/mL] | clearance [1] [mL/min/kg] | IC50 (A549-L) [nM] | IC50 (Colo 205) [nM] | IC50 (SKOV3) [nM] | IC50 (P388) [nM] | IC50 (HCT-116) [nM] | IC50 (PLK1 kinase domain) [nM] | IC50 (A549) [nM] | IC50 (H460) [nM] | IC50 (HCT116) [nM] | Structure (SMILES) | IC50 (MX-1 [2]) [nM] | IC50 (MX-1 [3]) [nM] | IC50 (RKO) [nM] | IC50 [4] [nM]
< 100 | 2200 | 32.3 | < 100 | < 100 | 100 to 1000 | 100 to 1000 | < 100 | – | – | – | – | C[C@@H](Oc1cc(-n2cnc3cc(-c4ccnc(N5CCN(C)CC5)c4)ccc32)sc1C(N)=O)c1ccccc1C(F)(F)F [Example 2, 5-{5-[2-(4-Methyl-1-piperazinyl)-4-pyridinyl]-1H-benzimidazol-1-yl}-3-({(1R)-1-[2-(trifluoromethyl)phenyl]ethyl}oxy)-2-thiophenecarboxamide] | < 100 | – | – | –
< 100 | 1850 | 35.6 | < 100 | < 100 | < 100 | < 100 | < 100 | < 10 | – | – | – | C[C@@H](Oc1cc(-n2cnc3cc(-c4ccnc(NC5CCN(C)CC5)c4)ccc32)sc1C(N)=O)c1ccccc1C(F)(F)F [Example 3, 5-(5-{2-[(1-Methyl-4-piperidinyl)amino]-4-pyridinyl}-1H-benzimidazol-1-yl)-3-({(1R)-1-[2-(trifluoromethyl)phenyl]ethyl}oxy)-2-thiophenecarboxamide] | < 100 | – | – | –
– | 1170 | 37.9 | – | – | – | – | < 100 | – | < 100 | < 100 | < 100 | C[C@@H](Oc1cc(-n2cnc3cc(-c4ccnc(N)c4)ccc32)sc1C(N)=O)c1ccccc1C(F)(F)F [Example 4, 5-[5-(2-Amino-4-pyridinyl)-1H-benzimidazol-1-yl]-3-({(1R)-1-[2-(trifluoromethyl)phenyl]ethyl}oxy)-2-thiophenecarboxamide] | – | < 100 | < 100 | 100 to 1000
< 100 | 2780 | 18.6 | < 100 | < 100 | < 100 | 100 to 1000 | < 100 | – | – | – | – | C[C@@H](Oc1cc(-n2cnc3cc(-c4ccc(NC5CCN(C)CC5)nc4)ccc32)sc1C(N)=O)c1ccccc1Cl [Example 6, 3-{[(1R)-1-(2-Chlorophenyl)ethyl]oxy}-5-(5-{6-[(1-methyl-4-piperidinyl)amino]-3-pyridinyl}-1H-benzimidazol-1-yl)-2-thiophenecarboxamide] | < 100 | – | – | –
